For orientation: Ki means a dissociation constant, usually derived from enzyme kinetics or from competition with a known ligand.

Entries after “also recorded” stand apart in the source; their conditions may differ. Like-named read-outs stand apart in the source and are kept apart here. A value given as a limit tells only on which side of the number the result lay.

These results are taken from PMC6644994, “Chemical Ligand Space of Cereblon” (ACS Omega, 2018).

Data set [1] addresses MsCI4 (Magnetospirillum gryphiswaldense, UniProt A4TVL0, W36F/W59F). The data set can be described thus: biochemical. It counts as binding.
Data set [2] relates to zebrafish embryos (cereblon-mediated pectoral fin malformation). The data set can be described thus: Zebrafish pectoral fin deformity assay.
Data set [3] addresses T1, MsCI4 (Magnetospirillum gryphiswaldense, UniProt A4TVL0).
T1 sequence (A4TVL0 1-124): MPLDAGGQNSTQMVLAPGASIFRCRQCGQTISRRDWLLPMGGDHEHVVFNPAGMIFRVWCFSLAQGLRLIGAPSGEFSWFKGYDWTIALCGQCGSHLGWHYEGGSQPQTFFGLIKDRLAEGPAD
The data set can be described thus: X-ray crystallography of MsCI4·ligand crystals obtained by soaking. It counts as binding. Set-up: key to binding verified via crystallography (symbol in Table S1): X-tal: binding verified via crystallography. The settings on record: for binding verified via crystallography (in words): MsCI4·thalidomide crystals soaked with solid rolipram. The source says:
In a next step, we characterized the binding of representative compounds via X-ray crystallography. […] (II) The structures with ethosuximide, hydantoin, 2-thiohydantoin, and thiazolidine-2,4-dione verify that imides with 5-membered rings have the same basic binding mode as 6-membered rings. (III) The binding mode of γ-butyrolactam, δ-valerolactam and rolipram verifies that lactams have a binding mode analogous to imides, with their carbonyl group occupying position d. […] Importantly, in a direct comparison with the crystal structure of the human thalidomide-binding domain, none of the protruding moieties of the effectors is interacting or in contact with any nonconserved amino acid side chain, such that their binding modes are not influenced by species-specific differences (Figure S2).
After 40 h of soaking, these crystals were loop-mounted and flash-cooled in liquid nitrogen. Data were collected at 100 K and a wavelength of 1 Å on a PILATUS 6M-F detector at beamline X10SA of the Swiss Light Source (PSI, Villigen, Switzerland). Diffraction images were indexed, integrated, and scaled using XDS.[34] […] Data collection and refinement statistics are summarized together with PDB accession codes in Table S2. All molecular depictions were prepared using MolScript,[37] BobScript,[38] and Raster3D.[39]

The test system of data set [4] is zebrafish embryos (cereblon-mediated pectoral fin malformation). The settings on record: cited from earlier work.
Setting [5] is: Table S1, affinity for MsCI4, FRET assay, read-out: Ki.
The mark [6] stands for this setting: zebrafish embryos, 400 μM, 75 h post fertilization.

Sequence of MsCI4 (Magnetospirillum gryphiswaldense, UniProt A4TVL0, W36F/W59F) (A4TVL0 entry or part of it W36F/W59F): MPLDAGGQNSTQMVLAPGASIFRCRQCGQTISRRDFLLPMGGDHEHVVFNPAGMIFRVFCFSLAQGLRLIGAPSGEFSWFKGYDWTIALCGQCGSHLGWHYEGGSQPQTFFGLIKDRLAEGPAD

In data set [1], `CC1CCC(=O)N1` (stereo not drawn) [5-Methylpyrrolidin-2-one] had an inhibition constant (Ki) of 19 ± 6 µM.

With `C1CCNC1` [Pyrrolidine], the Ki in data set [1] (setting [5]) was greater than 1000 µM.

`CC(=O)NCCCCC(N)C(=O)O` (stereo not drawn) [N-ε-Acetyllysine, 2-azaniumyl-6-acetamidohexanoate] had an inhibition constant (Ki) in data set [1] greater than 1000 µM. Moreover, the “binding to MsCI4 in the FRET assay (in words)” value (“binding to MsCI4” for short) in data set [1] (FRET assay) is on record as “could not detect any binding”.

In data set [1], `O=C1CCC(=O)O1` [Succinic Anhydride] came in with an inhibition constant Ki greater than 1000 µM.

On to `O=C1CC(=O)NC(=O)N1` [Barbiturate], for which the “pectoral fin deformity / teratogenic effect” value in data set [2] (setting [6]) was “no effect; also recorded: does not cause any effects”. In addition, in data set [1], the Ki was greater than 1000 µM. The “binding to MsCI4” value in data set [1] (FRET assay) is recorded as “abolished binding”.

As for Pyrrol-2,5-dione [Maleimide], the Ki in data set [1] (setting [5]) stood at 35 ± 3.1 µM.

With `Nc1cc[nH]c(=O)n1` [Cytosine], the Ki in data set [1] was greater than 1000 µM.

Consider `NC(=O)NC(=O)Cc1ccccc1` [Phenylacetylurea], for which the “binding to MsCI4” value in data set [1] (FRET assay) is “did not bind”. Besides, the inhibitory constant (Ki) in data set [1] (setting [5]) is greater than 1000 µM.

Take `O=C1CNC(=O)N1` [Hydantoin, Imidazolidine-2,4-dione]: in data set [1], the Ki worked out at 43 ± 10.7 µM.

Regarding `CCC1(C)CC(=O)NC1=O` (stereo not drawn) [Ethosuximide, 3-Ethyl-3-methylsuccinimide], in data set [1], the affinity corresponds to a Ki of 136 ± 11.6 µM.

In turn, `O=c1ccn([C@H]2C[C@H](O)[C@@H](CO)O2)c(=O)[nH]1` [Deoxyuridine] displayed an inhibition constant Ki in data set [1] of 15 ± 1.6 µM.

Regarding `O=C1CCCC(=O)N1` [Glutarimide, Piperidine-2,6-dione], in data set [2] (setting [6]), the “effect on pectoral fin deformity of injecting zcrbnYW/AA mRNA (thalidomide-insensitive cereblon mutant)” value is “alleviated” and the “pectoral fin deformity / teratogenic effect” value is listed as “strongest effect; also recorded: cause developmental defects”.

With `O=C1CCCC(=O)O1` [Glutaric Anhydride], the Ki in data set [1] is greater than 1000 µM.

In turn, `O=C1CCCO1` [γ-Butyrolactone] came in with an inhibitory constant (Ki) in data set [1] greater than 1000 µM.

`O=c1cc[nH]c(=O)[nH]1` [Uracil, Pyrimidine-2,4-dione] gave a Ki in data set [1] of 35 ± 5.1 µM.

`S=C1CCCN1` [Pyrrolidine-2-thione] gave an inhibition constant (Ki) in data set [1] greater than 1000 µM.

In the case of `CC(N)=O` [Acetamide], the “binding to MsCI4” value in data set [1] (FRET assay) is “could not detect any binding”. Also, the Ki in data set [1] (setting [5]) is greater than 1000 µM.

The molecule `C[C@@H]1C[C@@H]([C@H](O)CC2CC(=O)NC(=O)C2)C(=O)[C@@H](C)C1` [Cycloheximide] yielded a Ki in data set [1] greater than 1000 µM. Further, the “binding to MsCI4” value in data set [1] (FRET assay) is recorded as “abolished binding”.

For the molecule `O=C1CCCCCCN1` [1-Azo-2-Cyclooctanone], the Ki in data set [1] (setting [5]) is greater than 1000 µM.

With `C1CCNCC1` [Piperidine], in data set [1], the Ki was greater than 1000 µM.

On to `O=C1CCN1` [Azetidin-2-one], for which the Ki in data set [1] (setting [5]) was found to be 77 ± 11 µM.

In turn, `O=C1CCCCN1` [δ-Valerolactam, Piperidin-2-one] had an inhibition constant (Ki) in data set [1] of 146 ± 20.3 µM.

As for `COc1ccc(C2CNC(=O)C2)cc1OC1CCCC1` (stereo not drawn) [Rolipram], the entries for the “binding verified via crystallography (in words)” value in data set [3] and in data set [3] (listed as rolipram) were “binding was confirmed via crystallography” and “could verify its binding via crystallography; also recorded: verified by crystallography”, respectively. In addition, in data set [3] (Table S1), the “binding verified via crystallography (symbol in Table S1)” value was “X-tal”.

As for `CC(=O)NC(N)=O` [N-Acetylurea], the “binding to MsCI4” value in data set [1] (FRET assay) is “detectable”. Also, the Ki in data set [1] (printed in figures and text, FRET assay, read-out: Experimental Ki values for MsCI4) was determined as 522 µM.

As for `O=C1CCNC(=O)N1` [Dihydrouracil, Hexahydropyrimidine-2,4-dione], the Ki in data set [1] worked out at 88 ± 6.8 µM.

Consider `O=C1CNC(=S)N1` [2-Thiohydantoin], for which, in data set [1], affinity was put at a Ki of 13 ± 1.3 µM.

In the case of `CC1(C)OC(=O)NC1=O` [5,5-Dimethyl-oxazolidine-2,4-dione], in data set [1], the Ki was greater than 1000 µM. In addition, the “binding to MsCI4” value in data set [1] (FRET assay) is recorded as “no detectable binding”.

For the molecule `O=C1CCCN1` [γ-Butyrolactam, Pyrrolidin-2-one], the affinity in data set [1], expressed as Ki, was 57 ± 11.6 µM.

Molecule `CCC1(c2ccc(N)cc2)CCC(=O)NC1=O` (stereo not drawn) [Aminoglutethimide] gave an inhibition constant Ki in data set [1] of 39 ± 3.8 µM.

Consider `O=C1CCC(N2C(=O)c3ccccc3C2=O)C(=O)N1` (stereo not drawn) [Thalidomide], for which, in data set [2] (zebrafish, 200 μM), the pectoral fin phenotype entry is “not clearly identifiable”. The “pectoral fin development in zebrafish embryos” value in data set [4] (zebrafish embryos) is listed as “stunted pectoral fins”.

The molecule `COc1ccc(C2CNC(=O)C2)cc1OCCCN1CCC(C(=O)c2ccc(F)cc2)CC1` (stereo not drawn) [Lidanserin] gave a Ki in data set [1] of 25 ± 8.5 µM.

Molecule `Cc1c[nH]c(=O)[nH]c1=O` [Thymine, 5-Methylpyrimidine-2,4-dione] yielded a Ki in data set [1] of 478 ± 41.6 µM. Moreover, the “binding to MsCI4” value in data set [1] (FRET assay) is reported as “very low but measurable affinities”.

Turning to `O=C1CCCCCN1` [ε-Caprolactam], the Ki in data set [1] is greater than 1000 µM. Further, the “binding to MsCI4” value in data set [1] (FRET assay) is “no detectable binding”.

As for `CN1CC(=O)NC1=N` [Creatinine, 2-Imino-N-methylhydantoin], the Ki in data set [1] was greater than 1000 µM.

Regarding `Cc1cn([C@H]2C[C@H](O)[C@@H](CO)O2)c(=O)[nH]c1=O` [Thymidine], the Ki in data set [1] came to 204 ± 34.5 µM. In addition, the “binding to MsCI4” value in data set [1] (FRET assay) is reported as “very low but measurable affinities”.

Regarding `CN1CC(=O)NC1=O` [N-Methylhydantoin], in data set [1], the Ki came out at 16 ± 1.3 µM.

In the case of `CC(=O)NCCN` [N-(2-Aminoethyl)acetamide], in data set [1], the Ki is greater than 1000 µM. The “binding to MsCI4” value in data set [1] (FRET assay) is recorded as “could not detect any binding”.

Consider `O=C1CCC(=O)N1` [Succinimide, Pyrrolidine-2,5-dione], for which the inhibition constant Ki in data set [1] is 4.3 ± 0.5 µM.

Turning to `O=c1ccn([C@@H]2O[C@H](CO)[C@@H](O)[C@H]2O)c(=O)[nH]1` [Uridine], the “teratogenic effect on fin formation in zebrafish” value in data set [4] (zebrafish) is listed as “same effect on fin formation”. The Ki in data set [1] was found to be 13 ± 1.9 µM.

`CCC1(C)NC(=O)NC1=O` (stereo not drawn) [5-Ethyl-5-methyl-hydantoin] gave a Ki in data set [1] greater than 1000 µM. The “binding to MsCI4” value in data set [1] (FRET assay) is “no binding was detectable”.

In the case of `O=C1CSC(=O)N1` [Thiazolidine-2,4-dione], in data set [1], the affinity corresponds to a Ki of 137 ± 15.9 µM.

With `O=c1[nH]cc([C@@H]2O[C@H](CO)[C@@H](O)[C@H]2O)c(=O)[nH]1` [Pseudouridine], the inhibitory constant (Ki) in data set [1] is greater than 1000 µM. For the same molecule, the “binding to MsCI4” value in data set [1] (FRET assay) is “not detectable; also recorded: no detectable binding”.

Consider N-(2-Hydroxypropyl)acetamide, for which the “binding to MsCI4” value in data set [1] (FRET assay) is recorded as “could not detect any binding”. Besides, the Ki in data set [1] (setting [5]) is greater than 1000 µM.
